Test results taken from ChEMBL document CHEMBL4602708, “Discovery of CNS-Penetrant Apoptosis Signal-Regulating Kinase 1 (ASK1) Inhibitors” (ACS Med Chem Lett, 2020).

What was measured:
[1] = Volume of distribution at steady state in rat; type: ADME; settings: in vivo, read-out: Vdss
P-gp (MDR1), human = assay: Apparent permeability from apical to basolateral side in MDCK-MDR1 cells transfected with human p-gp; type: ADME, cell-based, Canis lupus familiaris; settings: dog

Row | Vd [1] | Papp A→B (P-gp (MDR1), human) | Compound
1 | 2.7 L/kg | 1.8 ×10⁻⁶ cm/s | C[C@H]1CCCOc2nn(C)cc2C(=O)Nc2cccc(n2)-c2nncn21
2 | 2.3 L/kg | 5 ×10⁻⁶ cm/s | COc1nn(-c2cnccn2)cc1C(=O)Nc1cccc(-c2nncn2C(C)C)n1
